Data taken from PMC9027599, “Secondary Metabolites in Basil, Bio-Insecticide, Inhibition Effect, and In Silico Molecular Docking against Proteolytic Enzymes of the Red Palm Weevil (Rhynchophorus ferrugineus)” (Plants, 2022).
In brackets after ≈: the same amount, converted by molar mass.

Key:
elastase [1] = test: Serine proteinase microplate assay, SAAPLpNA (in vitro); assay type: biochemical, Rhynchophorus ferrugineus; settings: fourth instar larvae midgut homogenate
Protocol: (§1) The specific activities of serine proteinase were determined using a rapid quick microplate assay with substrates in reaction mixtures (150 μL) including a serine protease assay buffer, according to […] et al. and Olga et al. with modifications. The midguts were homogenized in the assay buffer (100 mM Tris-HCl, pH 8.1) and centrifuged for 30 min at 8000 rpm (Sigma 3K 30, rotors No. 12158). […] […] (100 mg/mL in DMF), BAρNA (100 mg/mL in DMSO), and […] (100 mg/mL in DMF) stock substrates were diluted in the assay buffer to 1 mg/mL, and substrate volume was 50 μL. […] The activity was quantified using an ELISA plate reader at a wavelength of 405 nm. As an empty well, an assay combination containing a denaturation enzyme was utilized instead of an active enzyme. […] To learn more about the proteases found in homogenate preparations of R. ferrugineus fourth midgut larval instars, inhibitors from many different types of mechanisms were used. […] As a control, an assay combination devoid of inhibitors was utilized. The absorbance of the enzymes was determined using an ELISA plate quick reader at various wavelengths. The percentage activity of the control enzyme for each inhibitor was evaluated for each enzyme. […] Larvae were exposed for 24 h to leaf discs treated with extract and compounds.

[2] = system: trypsin-like serine proteinase; test: Trypsin-like activity of midgut from larvae treated 24 h (in vivo); parameters: species or system Rhynchophorus ferrugineus; settings: midgut of fourth instar larvae treated for 24 h
Protocol: (§2) The midguts were homogenized in the assay buffer (100 mM Tris-HCl, pH 8.1) and centrifuged for 30 min at 8000 rpm (Sigma 3K 30, rotors No. 12158). […] […] (100 mg/mL in DMF), BAρNA (100 mg/mL in DMSO), and […] (100 mg/mL in DMF) stock substrates were diluted in the assay buffer to 1 mg/mL, and substrate volume was 50 μL. […] The activity was quantified using an ELISA plate reader at a wavelength of 405 nm. As an empty well, an assay combination containing a denaturation enzyme was utilized instead of an active enzyme. […] To learn more about the proteases found in homogenate preparations of R. ferrugineus fourth midgut larval instars, inhibitors from many different types of mechanisms were used. […] As a control, an assay combination devoid of inhibitors was utilized. The absorbance of the enzymes was determined using an ELISA plate quick reader at various wavelengths. The percentage activity of the control enzyme for each inhibitor was evaluated for each enzyme. […] Larvae were exposed for 24 h to leaf discs treated with extract and compounds.

elastase [3] = test: Elastase activity of midgut from larvae treated 24 h (in vivo); parameters: species or system Rhynchophorus ferrugineus; settings: midgut of fourth instar larvae treated for 24 h
Protocol: as §2

[4] = molecular target: trypsin-like serine proteinase; test: Serine proteinase microplate assay, BApNA (in vitro); assay type: biochemical, Rhynchophorus ferrugineus; settings: fourth instar larvae midgut homogenate
Protocol: as §1

[5] = system: R. ferrugineus fourth larvae; test: Topical application (contact insecticide) on larvae; assay type: in vivo, Rhynchophorus ferrugineus; settings: 4th larvae, probit analysis, 95% confidence limits in brackets
Protocol: (§3) The R. ferrugineus adult and larvae were acquired from an insect breeding lab at King Faisal University’s Date Palm Research Center of Excellence and grown utilizing sugarcane stem long pieces. The extracts activity against larvae was determined by using topical application method with storing larvae at 4–5 °C for 5 min. Previous serial concentrations of extract (10 µL) were applied to the dorsum of each larvae using a hand-operated micro-applicator (Burkard Manufacturing Co., Ltd., Hertfordshire, UK with a 50-ll micro-syringe (MS-N50; Ito Corp., Shizuoka, Japan). Each larva was feeding on 10 cm stem pieces of long sugarcane, with 5 larvae/box with three replicates. After topical administration, larval mortality was determined after 24, 48, 72, and 96 h to determine the LD50. Adults were tested for antifeedant effect determined using ten-centimeter-long sections of sugarcane stem divided into equal longitudinal halves. Pieces of long sections of sugarcane stem with area ~32.2 cm^2 were dipped for ten seconds in the previous serial concentration of extract (10 mL) and, then, dried in room temperature air. […] Each package received a replacement pair (male and female). Each treatment was replicated ten times. After 24, 48, 72, and 96 h, feeding observations were assayed.
(§4) Finney states that the statistical analysis and probit analysis were conducted using the SPSS 25.0 program (Statistical Package for Social Sciences, Armonk, NY, USA). Chemical components were determined by PCA using SPSS 25.0 program and presented using XLSTAT 2018.1. PCA is a clustering technique that is used to determine the relationships between samples. […] We did a mortality against dosage regression and converted the resultant median dose to an LC50 value (µg/mL). The range of LC50 was calculated with a 95 percent confidence interval using least-squares. We conducted a one-way analysis of variance on the enzyme activity data (ANOVA). The Student–Newman–Keuls (SNK) test was applied with separate means, and differences at p ≤ 0.05 were considered significant.

R. ferrugineus adults = test: whole plant or invertebrate; settings: Rhynchophorus ferrugineus
Protocol: as §3, §4

Compound: O=C(/C=C/c1ccc(O)c(O)c1)O[C@H](Cc1ccc(O)c(O)c1)C(=O)O [Rosmarinic acid]
- IC50 against elastase (in vitro) (elastase [1]): 96.4 µg/mL
- IC50 against trypsin-like serine proteinase (in vivo) [2]: 174.6 µg/mL
- IC50 against elastase (in vivo) (elastase [3]): 119.7 µg/mL
- IC50 against trypsin-like serine proteinase (in vitro) [4]: 91.3 µg/mL
- LD50 [5]: 12.4 (11.8–12.7) µg/Larvae
- LC50 (R. ferrugineus adults): 1500 µg/mL (≈ 4.15 mM)

Compound: dicaffeoyl-tartaric acid [Chicoric acid]
- IC50 against trypsin-like serine proteinase (in vivo) [2]: 75.1 µg/mL
- IC50 against trypsin-like serine proteinase (in vitro) [4]: 51.6 µg/mL
- LD50 [5]: 10.23 (9.87–10.94) µg/Larvae

Compound: O=C(/C=C/c1ccc(O)c(O)c1)O/C=C\c1ccc(O)c(O)c1 [Nepetoidin B]
- IC50 against trypsin-like serine proteinase (in vivo) [2]: 102.7 µg/mL
- IC50 against trypsin-like serine proteinase (in vitro) [4]: 86.7 µg/mL
- LD50 [5]: 11.9 (11.1–12.3) µg/Larvae
- LC50 (R. ferrugineus adults): 1320 µg/mL (≈ 4.19 mM)

Compound: C[C@@H]1O[C@@H](OC[C@H]2O[C@@H](Oc3c(-c4ccc(O)c(O)c4)oc4cc(O)cc(O)c4c3=O)[C@H](O)[C@@H](O)[C@@H]2O)[C@H](O)[C@H](O)[C@H]1O [Quercetin-3-O-rutinoside]
- IC50 against trypsin-like serine proteinase (in vivo) [2]: 325.5 µg/mL
- IC50 against trypsin-like serine proteinase (in vitro) [4]: 104.5 µg/mL
- LD50 [5]: 16.9 (15.1–17.6) µg/Larvae
- LC50 (R. ferrugineus adults): 1210 µg/mL (≈ 1.99 mM)

Compound: O=C(O)C[C@H](C(=O)O)[C@@H](O)C(=O)O [Isocitric acid]
- IC50 against trypsin-like serine proteinase (in vivo) [2]: 314.8 µg/mL
- LD50 [5]: 23.9 (21.1–24.6) µg/Larvae
- LC50 (R. ferrugineus adults): 1830 µg/mL (≈ 9.5 mM)

Compound: COc1ccc(-c2cc(=O)c3c(O)c(OC)c(OC)cc3o2)cc1 [Salvigenin, 5-Hydroxy-6,7,4′-trimethoxyflavone]
- IC50 against elastase (in vitro) (elastase [1]): 105.6 µg/mL
- IC50 against trypsin-like serine proteinase (in vivo) [2]: 241.2 µg/mL
- IC50 against elastase (in vivo) (elastase [3]): 138.2 µg/mL
- IC50 against trypsin-like serine proteinase (in vitro) [4]: 59.2 µg/mL
- LD50 [5]: 11.4 (10.4–11.8) µg/Larvae
- LC50 (R. ferrugineus adults): 1190 µg/mL (≈ 3.62 mM)
